According to PubChem BioAssay (NCI):
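Dose response: 5 concentrations. Exposure: 48 h. Format: 96-well plates. Endpoint: linear interpolation; highest concentration if not reached. At the GI50, growth is halved. TGI: concentration producing complete growth inhibition.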

How the values were obtained:
Assay in all cases: NCI anticancer screen, dose series, 48 h
A549 NSCLC = test system: A549 NSCLC
CAKI-1 renal = test system: CAKI-1 renal
COLO 205 colon = test system: COLO 205 colon
NCI-H23 lung = test system: NCI-H23 lung
NCI-H460 lung = test system: NCI-H460 lung
OVCAR-5 ovarian = test system: OVCAR-5 ovarian
SF-268 CNS = test system: SF-268 CNS
SF-539 CNS = test system: SF-539 CNS
SK-MEL-28 melanoma = test system: SK-MEL-28 melanoma
CCRF-CEM leukemia = test system: CCRF-CEM leukemia

Row | Compound | TGI (A549 NSCLC) [µM] | TGI (CAKI-1 renal) [µM] | TGI (COLO 205 colon) [µM] | TGI (NCI-H23 lung) [µM] | TGI (NCI-H460 lung) [µM] | TGI (OVCAR-5 ovarian) [µM] | TGI (SF-268 CNS) [µM] | TGI (SF-539 CNS) [µM] | TGI (SK-MEL-28 melanoma) [µM] | GI50 (A549 NSCLC) [µM] | GI50 (CAKI-1 renal) [µM] | GI50 (CCRF-CEM leukemia) [µM] | TGI (CCRF-CEM leukemia) [µM] | GI50 (NCI-H23 lung) [µM] | GI50 (NCI-H460 lung) [µM] | GI50 (OVCAR-5 ovarian) [µM] | GI50 (SF-268 CNS) [µM] | GI50 (SK-MEL-28 melanoma) [µM] | GI50 (COLO 205 colon) [µM] | GI50 (SF-539 CNS) [µM]
1 | CC12CCC(Br)C(C)(C)C1CC=C1C(=O)OCC1O2 (centres undefined) | > 57.9 | 26.8 | 34.7 | 32 | 36.2 | > 53.3 | 31.9 | > 100 | 28.6 | – | – | – | – | – | – | – | – | – | – | –
2 | Oc1ccc2oc3ncc(Br)c(-c4ccccc4)c3c2c1 | > 100 | > 100 | – | > 100 | > 100 | > 100 | > 100 | – | > 100 | > 100 | > 100 | > 100 | > 100 | > 100 | > 100 | > 100 | > 100 | > 100 | – | –
3 | COc1ccccc1NC(=O)CC(=O)N/N=C/c1ccc(N(CCC#N)S(=O)(=O)c2ccccc2)cc1 | > 100 | > 100 | > 100 | > 100 | > 100 | > 100 | > 100 | – | > 100 | – | – | – | > 100 | – | – | – | – | – | – | –
4 | O=c1c(-c2ccccc2)coc2cc(OC/C(=N/O)c3ccccc3)ccc12 | 25.2 | – | 72.6 | > 100 | 26.9 | > 100 | 28.7 | 53.3 | > 100 | 3.62 | – | 4.22 | > 100 | > 100 | 11 | 37 | 13.5 | 28.8 | 26.5 | 25.4
5 | O=C(NC12CC3CC(CC(C3)C1)C2)C(=O)c1c[nH]c2ccccc12 | 30.2 | – | 33.5 | 29.6 | 25.7 | 32.1 | 30.4 | 26.7 | 30.3 | – | – | – | 73.6 | – | – | – | – | – | – | –
6 | COC(=O)Nc1nc2ccc(Br)cc2[nH]1 | > 100 | – | > 100 | 80.7 | > 100 | > 100 | > 100 | 57.3 | > 100 | – | – | – | > 100 | – | – | – | – | – | – | –
7 | COc1ccc(OCC(=O)O)c(C(=O)CCC(=O)O)c1 | > 100 | – | > 100 | > 100 | > 100 | > 100 | > 100 | > 100 | > 100 | – | – | – | > 100 | – | – | – | – | – | – | –
8 | Clc1ccc(C(n2cc(Br)cn2)n2cc(Br)cn2)cc1 | 32.6 | 23.4 | 33.8 | 42.6 | 33.7 | 29.9 | 33.4 | – | 32.6 | – | – | – | 60.9 | – | – | – | – | – | – | –
9 | CC(=O)C1=C(O)CC2CC3c4[nH]c5ccccc5c4CCN3CC2C1 (centres undefined) | > 100 | – | > 100 | > 100 | > 100 | > 100 | > 100 | > 100 | > 100 | – | – | – | 87.7 | – | – | – | – | – | – | –
10 | CN(C)c1ccc(/C=c2\sc3nc4ccccc4n3c2=O)cc1 | > 100 | > 100 | > 100 | > 100 | > 100 | > 100 | > 100 | > 100 | > 100 | – | – | – | – | – | – | – | – | – | – | –
11 | CCOC(=O)c1c2c(n3ccccc13)C(=O)c1ncccc1C2=O | 8.01 | 28.5 | 4.93 | 5.75 | – | 27.5 | 23.3 | 1.96 | 33.3 | 0.323 | 0.301 | 3.06 | > 100 | 0.0617 | – | 1.8 | 0.0474 | 0.134 | 1.65 | 0.111
12 | COC(=O)/C=C/c1cc2c(cc1-c1c(C(=O)O)cc(OC)c(OC)c1OC)OCO2 | > 10 | > 10 | > 10 | > 10 | – | – | > 10 | > 10 | > 10 | – | – | – | > 10 | – | – | – | – | – | – | –
13 | COC(=O)CC[C@H](Cc1ccccc1)NC(=O)c1csc([C@@H](C[C@H](C(C)C)N(C)C(=O)[C@@H](NC(=O)[C@H]2CCCCN2C)C(C)C)OC(C)=O)n1 | > 25 | – | – | > 25 | > 25 | > 25 | > 25 | – | > 25 | 0.00744 | – | 0.00289 | > 25 | 0.00515 | < 0.0025 | 0.00816 | 0.00785 | > 25 | – | –
14 | Cc1cc2c(C)nn(Cc3ccc(Cl)cc3)c2c(C#N)c1C | > 100 | – | > 100 | > 100 | – | > 100 | > 100 | > 100 | > 100 | – | – | – | > 100 | – | – | – | – | – | – | –
15 | Cc1ccc(Cl)cc1NC(=O)c1sc2nc3c(cc2c1N)C(=O)CCC3 | > 100 | > 100 | > 100 | – | > 100 | > 100 | > 100 | > 100 | > 100 | 3.85 | 3.33 | – | – | – | 3.73 | > 100 | > 100 | > 100 | 4.41 | 4.65
16 | O=C(c1ccccc1)c1cn(/N=C\c2ccccc2)c(=O)nc1-c1ccccc1 | > 100 | – | > 100 | > 100 | > 100 | > 100 | > 100 | > 100 | > 100 | – | – | – | > 100 | – | – | – | – | – | – | –
